For one series, the target named is T1, DPP-IV (Homo sapiens, UniProt P27487).
T1 construct: from tissue; host or cells: human plasma (per the earlier reading of the assay)
The series is described as follows: DPP-IV inhibition, compounds screened by using human plasma. Particulars: screened by using human plasma (starred examples); for inhibition at 0.3 µM: 300 nM compound concentration. It is filed as biochemical.

The structures appear in SMILES notation.

A word on the IC50: it is the midpoint of a concentration-inhibition curve. Higher therefore signals weaker potency in that assay. The term melting point denotes the temperature of the solid-liquid transition. Broadly, the inhibition is the change of the read-out against control, counted positive when it falls. Read a low inhibition as a response near the control.

T1 sequence (P27487 39-766 limits assumed): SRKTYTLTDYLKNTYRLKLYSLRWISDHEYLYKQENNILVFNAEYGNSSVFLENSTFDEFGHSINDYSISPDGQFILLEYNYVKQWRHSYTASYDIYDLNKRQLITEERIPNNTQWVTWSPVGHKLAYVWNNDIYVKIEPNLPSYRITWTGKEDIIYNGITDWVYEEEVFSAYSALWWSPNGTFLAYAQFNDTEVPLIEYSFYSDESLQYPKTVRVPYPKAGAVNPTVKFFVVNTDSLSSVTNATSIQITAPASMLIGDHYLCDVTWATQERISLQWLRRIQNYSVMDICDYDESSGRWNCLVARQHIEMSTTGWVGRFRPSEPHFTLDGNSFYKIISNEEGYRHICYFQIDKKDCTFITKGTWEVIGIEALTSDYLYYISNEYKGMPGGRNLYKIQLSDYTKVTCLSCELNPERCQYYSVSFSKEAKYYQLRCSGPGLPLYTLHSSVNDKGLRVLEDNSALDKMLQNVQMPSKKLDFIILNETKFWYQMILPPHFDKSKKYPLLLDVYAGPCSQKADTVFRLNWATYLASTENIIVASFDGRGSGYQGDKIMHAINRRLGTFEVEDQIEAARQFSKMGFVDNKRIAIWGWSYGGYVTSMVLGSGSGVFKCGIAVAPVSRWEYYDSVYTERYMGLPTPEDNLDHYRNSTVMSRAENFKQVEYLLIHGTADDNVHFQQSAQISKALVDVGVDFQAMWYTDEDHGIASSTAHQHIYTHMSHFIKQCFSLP

Compound `CC1(C)[C@H](c2nc(-c3ccc(F)cc3)no2)CC[C@]1(C)NCC(=O)N1C[C@@H](F)C[C@H]1C#N` [Example 49, (2S,4S)-4-Fluoro-1-(2-((1S,3R)-3-(3-(4-fluorophenyl)-1,2,4-oxadiazol-5-yl)-1,2,2-trimethylcyclopentylamino)acetyl)pyrrolidine-2-carbonitrile] showed a melting point of 160 to 163 °C. This compound registered an IC50 against DPP-IV of 0.422 µM.

In turn, `CN1C[C@]2(C)CC[C@](NCC(=O)N3C[C@H](F)C[C@H]3C#N)(C1)C2(C)C` [Example 77, (2S,4R)-4-Fluoro-1-(2-((1R,5R)-3,5,8,8-tetramethyl-3-azabicyclo[3.2.1]octan-1-ylamino)acetyl)pyrrolidine-2-carbonitrile] showed a melting point of 74 to 79 °C. Moreover, the inhibition at 0.3 µM against DPP-IV stood at 13.4%.

In turn, `CC1(C)[C@H](CS(=O)(=O)c2ccc(S(C)(=O)=O)cc2)CC[C@]1(C)NCC(=O)N1C[C@H](F)C[C@H]1C#N` [Example 47, (2S,4R)-4-Fluoro-1-(2-((1S,3R)-1,2,2-trimethyl-3-((4-(methylsulfonyl)phenylsulfonyl)methyl)cyclopentylamino)acetyl)pyrrolidine-2-carbonitrile] had a melting point of 172 to 175 °C. This compound showed an inhibition at 0.3 µM on DPP-IV of 13.5%.

`CC1(C)[C@@H](CNC(=O)c2ccccc2F)CC[C@@]1(C)NCC(=O)N1C[C@@H](F)C[C@H]1C#N` [Example 21, N-(((1S,3R)-3-(2-((2S,4S)-2-Cyano-4-fluoropyrrolidin-1-yl)-2-oxoethylamino)-2,2,3-trimethylcyclopentyl)methyl)-2-fluorobenzamide] displayed a melting point of 123 to 127 °C. This compound also yielded an IC50 against DPP-IV of 0.33 µM.

In turn, `CC(C)c1noc([C@H]2CC[C@@](C)(NCC(=O)N3C[C@@H](F)C[C@H]3C#N)C2(C)C)n1` [Example 52, (2S,4S)-4-Fluoro-1-(2-((1R,3S)-3-(3-isopropyl-1,2,4-oxadiazol-5-yl)-1,2,2-trimethylcyclopentylamino)acetyl)pyrrolidine-2-carbonitrile] came in with a melting point of 91 to 94 °C. For the same compound, the inhibition at 0.3 µM at DPP-IV was 29.2%.

The record behind these values is patent publication US8466145B2, “Dipeptidyl peptidase IV inhibitors” (Orchid Chemicals & Pharmaceuticals Limited, priority 2009, dated 2013).
